Literature values as cited in patent US6638954B2, “Δ2-1,2,3-TRIAZOLINE ANTICONVULSANTS AND THEIR ACTIVE METABOLITE ANALOGUES, THE AMINOALKYLPYRIDINES, ARE EXCITATORY AMINO ACID ANTAGONISTS AND ANTIISCHEMIC AGENTS, USEFUL IN THE TREATMENT OF CEREBRAL ISCHEMIA RESULTING FROM STROKE” (K and K Biosciences, Inc., priority 2000, dated 2003).

Legend:
[1] = tested on: N-methyl D-aspartate (NMDA)-induced seizures; conditions: mouse
[2] = tested on: entorhinal-kindled rats; conditions: non-sedative, non-neurotoxic doses
[3] = tested on: amygdala-kindled rats; conditions: non-sedative, non-neurotoxic doses

Substance: 1-(p-Chlorophenyl)-5-(4-pyridyl)-Δ^2-1,2,3-triazoline [Table IV (2)]
- Protection against NMDA-induced seizures/convulsions [1]: complete protection
- ED50, protection against after-discharge seizures and generalized convulsions [2]: 423 ± 45 mg/kg
- ED50, protection against after-discharge seizures and generalized convulsions [3]: 215 ± 61 mg/kg
